The target in assay [1] is T1, MC4R (Homo sapiens, UniProt P32245). The assay is described as follows: AlphaScreen cAMP assay, inverse agonist activity at hMC4R. The assay is classed as cell-based. The conditions noted are these: for hMC4R Inverse Agonist, decrease from basal signal / EC50: Table 10; for EC50: apparent potency, none = no inverse agonist activity; for fold decreased inverse agonist apparent potency relative to AGRP: wildtype hMC4R. Also noted: expressed in transfected cells.
Procedure: The apparent potencies were determined from the inflection point of the normalized sigmoidal dose-response curves.
(§1) Briefly, cells 70-90% confluent were dislodged with Versene (Gibco®) at 37° C. and plated 10,000 cells/well in a 384-well plate (Optiplate™) with 10 μL freshly prepared stimulation buffer (1×HBSS, 5 mM HEPES, 0.5 mM IBMX, 0.1% BSA, pH=7.4) with 0.5 μg anti-cAMP acceptor beads per well.
(§2) Following stimulation, streptavidin donor beads (0.5 μg) and biotinylated-cAMP (0.62 μmol) were added to the wells in a subdued light environment with 10 μL lysis buffer (5 mM HEPES, 0.3% Tween-20, 0.1% BSA, pH=7.4) and the plates were incubated in the dark at room temperature for an additional 2 hr.
(§3) The EC50 values represent the mean of duplicate replicates performed in at least three independent experiments. The EC50 estimates and associated standard errors (SEM) were determined by fitting the data to a nonlinear least-squares analysis using the PRISM program (v4.0, GraphPad Inc.). The ligands were assayed as TFA salts and not corrected for peptide context.

In assay [2] the test system is rats. The conditions noted are these: ICV administration into rats; cited from earlier work.
Assay [3] deals with T2, mMC1R (Mus musculus, UniProt Q01727).
T2 construct: expressed in transfected cells
T2 sequence (Q01727 whole entry): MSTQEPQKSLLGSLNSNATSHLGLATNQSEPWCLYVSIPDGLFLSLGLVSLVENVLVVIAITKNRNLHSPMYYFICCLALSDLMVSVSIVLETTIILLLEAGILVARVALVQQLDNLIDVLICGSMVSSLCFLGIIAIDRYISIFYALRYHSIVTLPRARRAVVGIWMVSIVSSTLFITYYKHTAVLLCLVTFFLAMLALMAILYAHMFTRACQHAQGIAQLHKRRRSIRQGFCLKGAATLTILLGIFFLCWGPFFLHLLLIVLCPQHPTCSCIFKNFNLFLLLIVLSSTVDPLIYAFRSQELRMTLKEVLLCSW
The assay is described as follows: AlphaScreen cAMP assay, agonist activity, HEK293 cells stably expressing mMC1R. Particulars: Table 2; at 100 μM, relative to NDP-MSH. The assay is classed as cell-based.

For assay [4], the target named is T3, mMC4R (Mus musculus, UniProt P56450). The assay is described as follows: AlphaScreen cAMP assay, agonist activity, HEK293 cells stably expressing mMC4R. The assay is classed as cell-based. Also noted: expressed in transfected cells. The conditions noted are these: Table 2; at 100 μM.
T3 sequence (P56450 whole entry): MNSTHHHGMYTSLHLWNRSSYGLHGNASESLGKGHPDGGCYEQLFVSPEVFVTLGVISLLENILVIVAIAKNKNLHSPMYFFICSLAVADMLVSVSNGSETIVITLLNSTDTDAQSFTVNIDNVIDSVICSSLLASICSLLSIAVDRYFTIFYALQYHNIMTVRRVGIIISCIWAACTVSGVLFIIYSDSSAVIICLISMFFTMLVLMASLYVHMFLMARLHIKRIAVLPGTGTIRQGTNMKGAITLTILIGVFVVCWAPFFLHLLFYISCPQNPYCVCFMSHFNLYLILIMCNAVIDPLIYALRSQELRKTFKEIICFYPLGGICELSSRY
Assay [5] deals with T4, mMC3R (Mus musculus, UniProt P33033).
T4 construct: expressed in transfected cells
T4 sequence (P33033 whole entry): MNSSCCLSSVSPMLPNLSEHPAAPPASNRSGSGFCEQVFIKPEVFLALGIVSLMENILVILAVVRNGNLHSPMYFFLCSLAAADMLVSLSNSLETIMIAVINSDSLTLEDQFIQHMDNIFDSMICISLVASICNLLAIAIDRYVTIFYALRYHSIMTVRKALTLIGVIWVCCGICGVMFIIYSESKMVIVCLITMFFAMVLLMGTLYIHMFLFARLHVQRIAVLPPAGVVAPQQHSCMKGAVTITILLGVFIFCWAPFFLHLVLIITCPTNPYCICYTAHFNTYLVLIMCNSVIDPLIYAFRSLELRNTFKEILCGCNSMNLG
The assay is described as follows: AlphaScreen cAMP assay, agonist activity, HEK293 cells stably expressing mMC3R. The conditions noted are these: Table 2; at 100 μM. The format is cell-based. On the technique in general: Alpha assays give light when donor and acceptor beads are brought close together.

In assay [6] the test system is male WT mice. The assay can be described thus: Mouse feeding study, intrathecal (IT) injection. The conditions noted are these: 2 nmol IT. The assay is classed as in vivo. On the procedure: This study was conducted in accordance with the guidelines set up by the Institutional Animal Care and Use Committee (IACUC) at the University of Minnesota. Male Wildtype (WT) mice (mixed 129/Sv×C57BL/6J background) derived from an in house breeding colony were used throughout this experiment as previously reported in literature.^14,23,61,63,65 Each mouse was individually housed in standard polycarbonate conventional cages provided by the University of Minnesota's Research Animal Resources (RAR). Mice were singly housed in order to adequately measure food intake of individual mice during experiments. At the beginning of this experiment, mice were age-matched at 24 weeks old. Research lab staff performed weekly cage changes. […] Mice were monitored daily to assess health.
All mouse feeding experiments were designed following a crossover, non-fasting (nocturnal) paradigm. […] Intrathecal injections were performed as previously described.^63,66-68 Mouse body weight and food weight was recorded in 2, 4, 6, 8, 24, 48 and 72 hours post-injection following a single IT injection. […]
Primary dependent variables were: (i) food intake; and (ii) body weight. Food intake and body weight was analyzed a two-factor within-subject Analysis of Variance (ANOVA) with between session variables of compound and the within-subject variable of time. […]

Assay [7] addresses T5, hMC4R-Kir7.1(M125R) (Homo sapiens, UniProt P32245).
T5 construct: expressed in transfected cells; Kir7.1 tetracycline-induced)
The assay can be described thus: Kir7.1 thallium flux assay, HEK293 cells expressing human MC4R and Kir7.1 (M125R). Particulars: for fold selective for cAMP over Kir7.1 signaling / fold selective for Kir7.1 signaling over cAMP antagonism: antagonist Ki / Kir7.1 apparent potency. The format is cell-based. On the procedure:
In this assay, the Kir7.1 (M125R) variant was used since it previously was reported to result in higher unitary conductance compared to the native channel.^39
The compound with the highest apparent potency.
HEK293 cells stably expressing the human MC4R and Kir7.1 (M125R) were grown in MEM medium with 10% FBS without antibiotics, suspended in medium plus 1 μg ml^−1 tetracycline (to induce expression of the transfected tet-sensitive Kir7.1 gene) and plated (20 μL) in 384-well poly-D-lysine coated optical bottom plates (BD Biosciences) at 20,000 cells per well. Plates were incubated overnight for 16-24 h in the cell incubator at 37° C., 5% CO2. […] Plates were incubated in the dark for 1 h at room temperature and dye solution was removed. Upon addition of 20 μL 1×HBSS buffer, a liquid handler added 20 μL of ligand solution to entire plate simultaneously (ligands were prepared by serial dilution in 1×HBSS, 20 mM HEPES, 0.1% BSA, pH 7.3). Plates were incubated in the dark for 20 min (unless otherwise indicated). After a baseline reading on a Thallos Plate-reader (Vanderbilt, Tenn.), 10 μL of a thallium solution (1×HBSS, 20 mM HEPES, 2 mM Tl, pH 7.3) was loaded and fluorescence generated by thallium influx was recorded for 10 min. The signal was normalized to an untreated control.

Assay [8] deals with T1, MC4R. The assay can be described thus: Competitive radioligand binding, displacement of 125I-AGRP, HEK293 cells expressing hMC4R. Also noted: expressed in transfected cells. The conditions noted are these: for IC50: Table 10; for fold decreased binding affinity compared to AGRP: displacement of 125I-AGRP.
Procedure: Competitive binding affinity experiments were performed on HEK-293 cells stably expressing the wildtype hMC4R. […] The assay media was carefully aspirated and cells were washed once with assay buffer. Cell were lysed with 500 μL 0.1 M NaOH and 500 μL 1% Triton X-100 for a minimum of 10 min. […] All experiments were performed with duplicate data points and in at least two independent experimental replicates. […] Concentration-response curves and IC50 values were generated and analyzed by the PRISM program (version 4.0. GraphPad Inc.) by a nonlinear regression method. The standard error of the mean (SEM) was derived from the IC50 values from at least two independent experimental replicates.
Assay [9] concerns the target T1, MC4R. The assay can be described thus: Competitive radioligand binding, displacement of 125I-NDP-MSH, HEK293 cells expressing hMC4R. The conditions noted are these: for IC50: Table 10; for fold decreased binding affinity compared to NDP-MSH: displacement of 125I-NDP-MSH. Further details: expressed in transfected cells.
In assay [10] the target is T1, MC4R. The assay is described as follows: AlphaScreen cAMP assay, antagonist activity (Schild, NDP-MSH) at hMC4R. The format is cell-based. Further details: expressed in transfected cells. The conditions noted are these: Example 5.
Procedure: as §1, §2, §3
Assay [11] has as its target MC1R (Mus musculus, UniProt Q01727). Particulars: previously reported; read-out: MC1R agonist potency; cited from earlier work.
Assay [12] deals with free-feeding mice. The assay is described as follows: Mouse feeding study, intracerebroventricular (ICV) administration. The assay is classed as in vivo.
Procedure: Cannulation surgeries were performed to place a cannula into the lateral cerebral ventricle as previously reported.^23,67,76 Mice were anesthetized with a mixture of xylazine (5 mg/kg) and ketamine (100 mg/kg) administered intraperitoneal (IP) and placed in a stereotaxic apparatus (David Kopf Instruments) that was used to guide the cannula placement. […] After surgery, flunixin meglumine (FluMegluine, Clipper Distribution Company) and 0.5 mL of 0.9% saline (Hospira, Lake Forrest, Ill.) was administered subcutaneously to aid in recovery. Mice recovered for at least 7 days prior to cannula placement validation. Mice were housed individually after surgery and for the remainder of the experiments.
Cannula placement was validated by the feeding response after ICV administration of 2.5 μg of human (h)PYY3-36 (cat # H8585; Bachem), as described previously.^23,67,75-76 Mice received saline treatment and hPYY treatment on different days separated by a washout period of at least 3 days in a crossover design nocturnal feeding paradigm. In this paradigm, compound or saline is administered 2 h prior to lights out (t=0 h) and body weight and food are measured. Mice have free access to food and water. At 4 h post-administration, food is measured. A mouse with a validated properly placed cannula consumed at least 0.8 g more food after hPYY administration compared to saline administration at 4 h.
All ICV and IT administration experiments utilized a crossover design with free access to standard chow. Mice were housed in RAR supplied conventional mouse cages. […] Matching vehicle controls (3% v/v DMSO in saline and 20% solutol) were prepared in parallel. The day of compound administration, an aliquot of stock solution was diluted with saline to the desired experimental dose in 3 μL, in parallel with vehicle control. For ICV administration, the desired experimental dose (3 μL) or vehicle control (3 μL) was delivered 2 h before lights out (t=0 h). For IT administration, the desired experimental dose (5 μL) or vehicle control (5 μL) was delivered 2 h before lights out (t=0 h). Food intake and mouse weight was manually measured at t=0, 2, 4, 6, 8, 24, 48, and 72 h post-injection. Mice recovered 6-7 days between treatments to reestablish pretreatment body weight and feeding patterns.
The target of assay [13] is T3, mMC4R. Also noted: expressed in transfected cells. Particulars: previous SAR study (ref 52); cited from earlier work.
Assay [14] concerns the target T6, mMC5R (Mus musculus, UniProt P41149).
T6 construct: expressed in transfected cells
The assay can be described thus: AlphaScreen cAMP assay, agonist and inverse agonist activity, HEK293 cells stably expressing mMC5R. The format is cell-based. Particulars: Table 6; apparent potency at inflection point.

“Also recorded” adds a separate entry of the source. Bridge positions count the residues as written; N and C are the ends. Square brackets hold non-standard residues; d marks the D form. Dap = NC[C@H](N)C(=O)O

T1 sequence (P32245 whole entry): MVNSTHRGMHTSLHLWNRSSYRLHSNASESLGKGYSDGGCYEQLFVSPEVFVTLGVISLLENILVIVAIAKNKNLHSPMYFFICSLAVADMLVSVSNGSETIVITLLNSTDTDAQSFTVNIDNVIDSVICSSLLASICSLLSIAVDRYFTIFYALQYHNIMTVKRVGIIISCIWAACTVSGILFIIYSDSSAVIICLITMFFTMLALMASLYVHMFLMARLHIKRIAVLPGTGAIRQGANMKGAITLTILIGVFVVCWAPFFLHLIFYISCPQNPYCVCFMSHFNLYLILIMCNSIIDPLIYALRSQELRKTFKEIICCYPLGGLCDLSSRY
T5 sequence (P32245 whole entry, stated change not applied): as the sequence (P32245 whole entry) above
T6 sequence (P41149 whole entry): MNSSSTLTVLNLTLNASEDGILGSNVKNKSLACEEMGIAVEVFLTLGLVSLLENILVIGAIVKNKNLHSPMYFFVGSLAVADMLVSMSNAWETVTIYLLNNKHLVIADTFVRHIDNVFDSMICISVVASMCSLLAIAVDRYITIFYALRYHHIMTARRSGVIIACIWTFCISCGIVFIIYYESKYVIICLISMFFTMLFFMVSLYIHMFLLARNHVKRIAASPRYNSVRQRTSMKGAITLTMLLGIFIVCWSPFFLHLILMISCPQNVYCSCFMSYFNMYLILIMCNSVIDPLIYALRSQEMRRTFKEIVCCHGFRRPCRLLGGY
Sequence of MC1R (Q01727 whole entry): as the sequence (Q01727 whole entry) above

Consider “c[Pro-Arg-Phe-Phe-Ser-Ala-Phe-DPro] [Peptide 5 (Example 1)]”, for which, in [1], the “hMC4R Inverse Agonist, decrease from basal signal” value (shortened to “hMC4R Inverse Agonist, decrease”) is on record as “(-25%)” and the EC50 stood at 16 ± 4 nM.

Turning to “AGRP(83-132): hypothesized biologically active form of agouti-related protein (SSRRCVRLHESCLGQQVPCCDPCATCYCRFFNAFCYCRKLGTAMNPCSRT; UniProt O00253 83-132, looked up, fragment)”, the “increase of 24 h food intake above saline” value in [2] is on record as 77%.

Consider “15 (cyclo(PRFFWAF[dP]); SMILES C[C@@H]1NC(=O)[C@H](Cc2c[nH]c3ccccc23)NC(=O)[C@H](Cc2ccccc2)NC(=O)[C@H](Cc2ccccc2)NC(=O)[C@H](CCCNC(=N)N)NC(=O)[C@@H]2CCCN2C(=O)[C@H]2CCCN2C(=O)[C@H](Cc2ccccc2)NC1=O) [Peptide 15]”, for which, in assay [3], the “mMC1R percent maximal stimulatory response” value amounted to 80% @ 100 μM. Besides, in assay [4], the “mMC4R percent maximal stimulatory response” value was 50% @. For the same substance, the “mMC3R percent maximal stimulatory response” value in [5] was 40% @.

Regarding “c[Pro-Arg-Phe-Phe-Ala-Ala-Phe-DPro] [Peptide 3 (Example 1)]”, in assay [1], the “hMC4R Inverse Agonist, decrease” value is “(-35%)”.

For “c[Pro-Arg-Phe-Phe-Asn-Ala-Nle-DPro] [Compound 7 (Example 3)]”, in assay [6], the “mouse body weight vs vehicle control” value was “treated animals weighing more than control animals”. Further, in [6] (single injection, listed as KAF2039-7), the “cumulative food intake vs vehicle” value is “statistically significant increase in food intake at 2 and 6 hours post-injection; also recorded: prolonged trend of increased food intake up to 72 hours post-injection”.

For the substance “c[Pro-Arg-Phe-Phe-DDap-Ala-Phe-DPro] [Peptide 9 (Example 1)]”, the “hMC4R Inverse Agonist, decrease” value in [1] was “(-30%)”. Also, in assay [7], the “fold decreased thallium flux apparent potency compared to MDE3-119-10c” value came to 80 fold and the “fold selective for cAMP over Kir7.1 signaling” value was 4 fold.

Broadly, the IC50 is the concentration that gives 50% inhibition. The low end stands for greater potency, the high end for weaker potency. As for “c[Pro-Arg-Phe-Phe-Glu-Ala-Phe-DPro] [Peptide 8 (Example 1)]”, in [8], the half-inhibitory concentration (IC50) is 1400 nM and the “fold decreased binding affinity compared to AGRP” value turned out to be 110 fold. In assay [9], the IC50 amounted to 2.5 µM and the “fold decreased binding affinity compared to NDP-MSH” value worked out at 90 fold. Besides, the “fold decreased antagonist potency relative to MDE3-119-8c at the hMC4R” value in assay [10] is reported as 70 fold. In [1], the “hMC4R Inverse Agonist, decrease” value is given as “(-35%)”; the EC50 stood at 1100 nM; the “fold decreased inverse agonist apparent potency relative to AGRP” value is recorded as 450 fold.

As to “H-Tyr-c[Dap-Arg-Phe-Phe-Asn-Ala-Phe-Asp]-Tyr-NH2 (H-Y[Dap]RFFNAFDY-NH2; lactam 2-9)”, the EC50 in assay [11] is 28.1 µM.

Turning to “c[Pro-Arg-Phe-Phe-Abu-Ala-Phe-DPro] [Peptide 4 (Example 1)]”, the “fold decreased binding affinity compared to AGRP” value in assay [8] stood at 16 fold. Moreover, the “fold decreased binding affinity compared to NDP-MSH” value in [9] was 20 fold. Further, in assay [12] (5 nmol dose), the “food intake after ICV administration” value is recorded as “observed to decrease food intake, a trend that did not achieve statistical significance”. In assay [12] (2 and 5 nmol doses), the “food intake after ICV administration” value is reported as “no significant food increase was observed by 8 h”. For the same substance, the “fold decreased antagonist potency relative to MDE3-119-8c at the hMC4R” value in assay [10] came out at 19 fold. Besides, in assay [1], the “hMC4R Inverse Agonist, decrease” value was “(-15%)” and the “fold decreased inverse agonist apparent potency relative to AGRP” value was found to be 9 fold. Moreover, in assay [7], the “fold decreased thallium flux apparent potency compared to MDE3-119-10c” value is given as 5 fold and the “fold selective for Kir7.1 signaling over cAMP antagonism” value was “approximately 50 fold”. Moreover, the “fold decreased antagonist potency compared to the Dap substitution at the mMC4R” value in [13] is reported as 25 fold.

As for “c[Pro-Arg-Phe-Phe-Asn-Ala-hPhe-DPro] [Compound 11 (Example 3)]”, in assay [14], the EC50 was determined as 290 nM.

With “c[Pro-Arg-Phe-Phe-Dap-Ala-Phe-DPro] [Peptide 2 (Example 1)]”, the “food intake after ICV administration vs vehicle” value in assay [12] (3 nmol dose) is “significant increase in food intake at 4, 6, and 8 h”. The “food intake after ICV administration” value in assay [12] (free feeding male mice, doses up to 3 nmol, listed as MDE3-119-8c) is on record as “dose-dependent increase in food intake was observed for the first 8 h post-injection; also recorded: did not significantly alter cumulative food intake after 24 h”. Also, the “hMC4R Inverse Agonist, decrease” value in [1] is reported as “(-50%)”. Further, in [7], the “fold decreased thallium flux apparent potency compared to MDE3-119-10c” value stood at 28 fold and the “fold selective for cAMP over Kir7.1 signaling” value is 2 fold.

Take “c[Pro-Arg-Phe-Phe-His-Ala-Phe-DPro] [Peptide 10 (Example 1)]”: in assay [8], the “fold decreased binding affinity compared to AGRP” value is reported as 4 fold. Also, the “fold decreased binding affinity compared to NDP-MSH” value in assay [9] is recorded as 5 fold. The “hMC4R Inverse Agonist, decrease” value in [1] was “(-30%)”.

Consider “c[Pro-Arg-Phe-Phe-Asn-Ala-Cha-DPro] [Compound 10 (Example 3)]”, for which, in assay [14], the EC50 stood at 780 nM.

In the case of “c[Pro-Arg-Phe-Phe-Asp-Ala-Phe-DPro] [Peptide 7 (Example 1)]”, in [8], the IC50 was 1300 nM and the “fold decreased binding affinity compared to AGRP” value is reported as 100 fold. In assay [9], the IC50 came out at 3.6 µM and the “fold decreased binding affinity compared to NDP-MSH” value is 130 fold. Besides, the “fold decreased antagonist potency relative to MDE3-119-8c at the hMC4R” value in [10] is on record as 90 fold. In assay [1], the “hMC4R Inverse Agonist, decrease” value is listed as “(-35%)”; the EC50 turned out to be 2000 nM; the “fold decreased inverse agonist apparent potency relative to AGRP” value was 830 fold. Besides, in [7], the “fold decreased thallium flux apparent potency compared to MDE3-119-10c” value is given as 2 fold and the “fold selective for Kir7.1 signaling over cAMP antagonism” value is listed as “over 500 fold”.

For “c[Pro-Arg-Phe-Phe-Asn-Ala-Phe-DPro] [Peptide 1 (Example 1)]”, the “hMC4R Inverse Agonist, decrease” value in assay [1] was “(-30%)”.

With “c[Pro-Arg-Phe-Phe-Asn-Ala-Trp-DPro] [Compound 8 (Example 3)]”, the EC50 in assay [14] is 150 nM.

The record behind these values is patent publication US11332499B2, “Cyclic peptides and methods of use thereof” (Regents of the University of Minnesota, priority 2018, dated 2022).
